Tested on: MCPP-induced Hypolocomotion
Assay: Reversal of MCPP-induced hypolocomotion
Assay type: in vivo
Details: po, procedure of WO 94/04533, read-out: ID50 (the source's name)
Source text: Reversal of MCPP-induced Hypolocomotion

SMILES	ED50
COc1cc2c(cc1C(F)(F)F)N(C(=O)Nc1cccc(-c3cccnc3)c1)CC2 [Example 1]	0.5 to 5.5 mg/kg

Tested on: not given
Assay: not given
Details: not given

melting point	SMILES
204 to 206 °C	CSc1cc2c(cc1C(F)(F)F)N(C(=O)Nc1ccc(Sc3cccnc3)nc1)CC2 [Example 144]
214 to 216 °C	CSc1cc2c(cc1C(F)(F)F)N(C(=O)Nc1ccc(Sc3ccncc3)nc1)CC2 [Example 145]
204 to 206 °C	COc1cc2c(cc1C(F)(F)F)N(C(=O)Nc1ccc(Sc3ccncc3)nc1)CC2 [Example 146]
206 to 209 °C	CSc1cc2c(cc1C(F)(F)F)N(C(=O)Nc1ccc(Cc3ccncc3)cc1)CC2 [Example 147]
210 to 215 °C	CSc1cc2c(cc1C(F)(F)F)N(C(=O)Nc1cccc(C(=O)NCc3cccnc3)c1)CC2 [Example 148]
145 to 146 °C	CSc1cc2c(cc1C(F)(F)F)N(C(=O)Nc1cccc(C(=O)CCc3ccccn3)c1)CC2 [Example 149]
78 to 80 °C	CSc1cc2c(cc1C(F)(F)F)N(C(=O)Nc1cccc(C(O)CCc3ccccn3)c1)CC2 (centres unmarked) [Example 150]
138 to 140 °C	CSc1cc2c(cc1C(F)(F)F)N(C(=O)Nc1ccc(C(=O)NCc3ccncc3)cc1)CC2 [Example 151]
92 to 94 °C	CSc1cc2c(cc1C(F)(F)F)N(C(=O)Nc1cccc(C(=O)NCCc3ccccn3)c1)CC2 [Example 153]
116 to 118 °C	CSc1cc2c(cc1C(F)(F)F)N(C(=O)Nc1cccc(C(=O)NCc3ccccn3)c1)CC2 [Example 154]
202 to 203 °C	COc1cc2c(cc1C(F)(F)F)N(C(=O)Nc1ccc(Oc3ccccc3)nc1)CC2 [Example 155]
218 to 221 °C	COc1cc2c(cc1C(F)(F)F)N(C(=O)Nc1ccc(Oc3c(C)ccnc3C)nc1)CC2 [Example 156]
226 to 228 °C	COc1cc2c(cc1C(F)(F)F)N(C(=O)Nc1ccc(Oc3ccccc3C)nc1)CC2 [Example 157]
188 to 189 °C	COc1cccc(Oc2ccc(NC(=O)N3CCc4cc(OC)c(C(F)(F)F)cc43)cn2)c1 [Example 158]
208 to 209 °C	COc1cc2c(cc1C(F)(F)F)N(C(=O)Nc1ccc(Oc3ccc(F)cc3C)nc1)CC2 [Example 159]
236 to 238 °C	COc1cc2c(cc1C(F)(F)F)N(C(=O)Nc1ccc(Oc3ccc(C)cc3C)nc1)CC2 [Example 160]
238 to 240 °C	COc1cc2c(cc1C(F)(F)F)N(C(=O)Nc1ccc(Oc3cccnc3Cl)nc1)CC2 [Example 161]
215 to 220 °C	CCc1ccccc1Oc1ccc(NC(=O)N2CCc3cc(OC)c(C(F)(F)F)cc32)cn1 [Example 162]
245 to 248 °C	COc1cc2c(cc1C(F)(F)F)N(C(=O)Nc1ccc(Oc3ccc(C(N)=O)cc3)nc1)CC2 [Example 163]
237 to 238 °C	COc1cc2c(cc1C(F)(F)F)N(C(=O)Nc1ccc(Oc3ccccc3C(F)(F)F)nc1)CC2 [Example 164]
193 to 194 °C	COc1cc2c(cc1C(F)(F)F)N(C(=O)Nc1ccc(Oc3cccc(C(F)(F)F)c3)nc1)CC2 [Example 165]
230 to 233 °C	COc1cc2c(cc1C(F)(F)F)N(C(=O)Nc1ccc(Oc3ccc(C)nc3C)nc1)CC2 [Example 166]
225 to 228 °C	Cc1ncccc1Oc1ccc(NC(=O)N2CCc3cc(Cl)c(Cl)cc32)cn1 [Example 168]
132 to 135 °C	O=C(Nc1ccc(F)c(-c2cncnc2)c1)N1CCc2cc(Cl)c(Cl)cc21 [Example 169]
260 °C	O=C(Nc1cc(F)cc(-c2cncnc2)c1)N1CCc2cc(Cl)c(Cl)cc21 [Example 170]
211 to 213 °C	Cc1cc2c(cc1Cl)N(C(=O)Nc1ccc(F)c(-c3cncnc3)c1)CC2 [Example 171]
214 to 218 °C	O=C(Nc1cc(F)cc(-c2cncnc2)c1)N1CCc2cc(Br)c(C(F)(F)F)cc21 [Example 172]
200 to 201 °C	O=C(Nc1ccc(F)c(-c2cccnc2)c1)N1CCc2cc(Br)c(C(F)(F)F)cc21 [Example 174]
136 to 138 °C	COc1cc2c(cc1C(F)(F)F)N(C(=O)Nc1ccc(Oc3cccc(C#N)c3)nc1)CC2 [Example 175]
188 to 189 °C	COc1cc2c(cc1C(F)(F)F)N(C(=O)Nc1ccc(Oc3ccc(C#N)cc3)nc1)CC2 [Example 176]

The next lines start with the molecule.

SMILES	melting point
Cc1cc2c(cc1C(F)(F)F)N(C(=O)Nc1cccc(-c3cccnc3)c1)CC2 [Example 103]	208 to 210 °C
C=Cc1cc(NC(=O)N2CCc3cc(OC)c(C(F)(F)F)cc32)cc(-c2cccnc2)c1 [Example 104]	138 to 140 °C
COc1cc2c(cc1C(F)(F)F)N(C(=O)Nc1cc(-c3cccnc3)cc(C(F)(F)F)c1)CC2 [Example 105]	220 to 222 °C
COc1cc2c(cc1C(F)(F)F)N(C(=O)Nc1cc(Cl)cc(-c3cccnc3)c1)CC2 [Example 106]	183 to 185 °C
COc1cc2c(cc1C(F)(F)F)N(C(=O)Nc1cc(C(C)=O)cc(-c3cccnc3)c1)CC2 [Example 107]	174 to 176 °C
COc1cc2c(cc1C(F)(F)F)N(C(=O)Nc1cc(-c3cccnc3)c(OC)c(C(F)(F)F)c1)CC2 [Example 108]	180 to 181 °C
COc1cc2c(cc1C(F)(F)F)N(C(=O)Nc1ccc(C)c(-c3cnccc3C)c1)CC2 [Example 109]	153 to 155 °C
COc1cc2c(cc1C(F)(F)F)N(C(=O)Nc1cccc(-c3cccnc3C)c1)CC2 [Example 110]	179 to 180 °C
COc1cc2c(cc1C(F)(F)F)N(C(=O)Nc1cccc(-c3c(C)ccnc3C)c1)CC2 [Example 111]	202 to 204 °C
COc1cc2c(cc1C(F)(F)F)N(C(=O)Nc1cccc(-c3ccc(C)nc3)c1)CC2 [Example 112]	228 to 230 °C
COc1cc2c(cc1C(F)(F)F)N(C(=O)Nc1cccc(-c3ccnc(C)n3)c1)CC2 [Example 113]	> 220 °C
COc1cc2c(cc1C(F)(F)F)N(C(=O)Nc1cc(-c3cccnc3)cc(-c3cccnc3)c1)CC2 [Example 114]	155 to 156 °C
COc1cc2c(cc1C(F)(F)F)N(C(=O)Nc1cc(-c3ccncc3)cc(-c3cccnc3)c1)CC2 [Example 115]	153 to 154 °C
COc1cc2c(cc1C(F)(F)F)N(C(=O)Nc1cc(F)cc(-c3ccc(C)nc3)c1)CC2 [Example 116]	213 to 215 °C
COc1cc2c(cc1C(F)(F)F)N(C(=O)Nc1cccc(-c3cnc(C)cc3C)c1)CC2 [Example 117]	161 to 162 °C
COc1cc2c(cc1C(F)(F)F)N(C(=O)Nc1cc(F)cc(-c3cccnn3)c1)CC2 [Example 118]	230 to 231 °C
COc1cc2c(cc1C(F)(F)F)N(C(=O)Nc1cccc(-c3cncnc3)c1)CC2 [Example 119]	245 to 250 °C
COc1cc2c(cc1C(F)(F)F)N(C(=O)Nc1cccc(-c3cnccn3)c1)CC2 [Example 120]	208 to 209 °C
COc1cc2c(cc1C(F)(F)F)N(C(=O)Nc1cccc(-c3ccc(C)nn3)c1)CC2 [Example 121]	229 to 231 °C
COc1cc2c(cc1C(F)(F)F)N(C(=O)Nc1cc(OC(F)(F)F)cc(-c3cccnc3)c1)CC2 [Example 122]	168 to 170 °C

SMILES	melting point
COc1cc2c(cc1C(F)(F)F)N(C(=O)Nc1ccc(OC(F)(F)F)c(-c3cccnc3)c1)CC2 [Example 123]	99 to 100 °C
COc1cc2c(cc1C(F)(F)F)N(C(=O)Nc1cc(F)c(C)c(-c3cccnc3)c1)CC2 [Example 124]	244 to 247 °C
COc1cc2c(cc1C(F)(F)F)N(C(=O)Nc1cc(F)cc(-c3cccnc3C)c1)CC2 [Example 125]	204 to 205 °C
COc1cc2c(cc1C(F)(F)F)N(C(=O)Nc1cc(F)cc(-c3cnccn3)c1)CC2 [Example 126]	230 to 231 °C
COc1cc2c(cc1C(F)(F)F)N(C(=O)Nc1cc(F)cc(-c3cnc(C)cc3C)c1)CC2 [Example 127]	215 to 218 °C
COc1cc2c(cc1C(F)(F)F)N(C(=O)Nc1cc(F)c(C)c(N3C=CC=NC3)c1)CC2 [Example 128]	188 to 189 °C
Cc1cc2c(cc1Cl)N(C(=O)Nc1cc(F)c(C)c(-c3cccnc3)c1)CC2 [Example 129]	233 to 235 °C
COc1cc2c(cc1C(F)(F)F)N(C(=O)Nc1cncc(-c3cncnc3)c1)CC2 [Example 130]	120 to 121 °C
Cc1cc2c(cc1Cl)N(C(=O)Nc1cc(F)cc(-c3cnccn3)c1)CC2 [Example 131]	226 to 227 °C
Cc1cc2c(cc1Cl)N(C(=O)Nc1cc(F)cc(-c3cncnc3)c1)CC2 [Example 132]	222 to 226 °C
Cc1cc2c(cc1Cl)N(C(=O)Nc1cc(F)cc(-c3cccnc3C)c1)CC2 [Example 134]	205 to 206 °C
O=C(Nc1ccc(F)c(-c2cccnc2)c1)N1CCc2cc(Cl)c(Cl)cc21 [Example 135]	200 to 202 °C
Cc1cc2c(cc1Cl)N(C(=O)Nc1ccc(F)c(-c3cccnc3)c1)CC2 [Example 136]	185 to 186 °C
COc1cc2c(cc1C(F)(F)F)N(C(=O)Nc1cccc(OCc3cccnc3)c1)CC2 [Example 137]	202 to 204 °C
COc1cc2c(cc1C(F)(F)F)N(C(=O)Nc1ccc(OCc3cccnc3)cc1)CC2 [Example 138]	215 to 217 °C
COc1cc2c(cc1C(F)(F)F)N(C(=O)Nc1cccc(COc3cccnc3)c1)CC2 [Example 139]	188 to 190 °C
COc1cc2c(cc1C(F)(F)F)N(C(=O)Nc1cnc(-c3cccnc3)c(C)c1)CC2 [Example 140]	230 to 232 °C
CSc1cc2c(cc1C(F)(F)F)N(C(=O)Nc1cnc(-c3cccnc3)c(Cl)c1)CC2 [Example 141]	245 to 250 °C
CSc1cc2c(cc1C(F)(F)F)N(C(=O)Nc1ccc(-c3cncc(Cl)c3)nc1)CC2 [Example 142]	193 to 195 °C
COc1cc2c(cc1C(F)(F)F)N(C(=O)Nc1ccc(Oc3cccnc3)cc1)CC2 [Example 143]	193 to 194 °C

Reference: patent US6638953B2, “Indole derivatives as 5-HT receptor antagonist” (SmithKline Beecham p.l.c., priority 1995, dated 2003)
